Consider 6 compounds from paper PMC10578927, “An unconventional gatekeeper mutation sensitizes inositol hexakisphosphate kinases to an allosteric inhibitor” (eLife, 2023).

The target in data set [1] is T1, IP6K1^L210V (Homo sapiens, UniProt Q92551, L210V).
T1 construct: made in house; host or cells: E. coli Arctic Express
The data set can be described thus: NMR activity assay, [13C6]-InsP6 to 5PP-InsP5, with ATP-regenerating system. The note with it: for inhibition of IP6K1^L210V: 10 µM concentration. In kind it is biochemical. The text has this:
(§1) The gatekeeper mutants L210G and L210A of IP6K1 were generated by site-directed mutagenesis and the enzymes were recombinantly expressed, analogous to the WT kinase, as MBP-fusion proteins. To assess their catalytic activity, we used an NMR assay that harnesses fully ^13C-labeled InsP6 as a substrate and enables direct product readout of 5PP-InsP5 (Figure 2b and Figure 2—figure supplement 1; [Puschmann et al., 2019]; [Harmel et al., 2019]). […] Likewise, IP6K2 suffered a drastic decline in substrate turnover upon gatekeeper mutation to glycine (Figure 2—figure supplement 2).
(§2) The NMR assay for IP6K activity was performed similarly as described before ([Harmel et al., 2019]) with slight alterations. Enzyme assays were performed in D2O in a total volume of 150 µl containing 20 mM 4-(2-hydroxyethyl)-1-piperazineethanesulfonic acid (HEPES) pH* 6.8, 50 mM NaCl, 6 mM MgCl2, 1 mM ATP, 0.2 mg/ml BSA, 1 mM DTT, 5 mM creatine phosphate and 1 U/ml creatine kinase (ATP-regenerating system) and 50 nM kinase if not otherwise stated. HEPES, NaCl, and BSA were prepared as buffer A and DTT and creatine phosphate as buffer B in D2O and were adjusted to pH* 6.8, respectively. If applicable, inhibitor was added as a DMSO-d6 stock in a twofold dilution series at a final DMSO concentration of 1% if not otherwise mentioned. Otherwise, DMSO-d6 was added to the same percentage. The samples were equilibrated at 37°C for 3 min and the reaction initiated by adding 100 µM [^13C6]-InsP6.

The target of data set [2] is T1, IP6K1^L210V. The data set can be described thus: Michaelis–Menten and Lineweaver–Burk kinetics (NMR). The note with it: Michaelis–Menten, read-out: KM for ATP. Type of data set: biochemical. The procedure:
(§3) Kinetic assays were performed in D2O in a total volume of 500 µl containing the same buffer components for IP6K and IP6KA constructs as stated for the NMR activity assays above. […] If applicable, inhibitor was added as a DMSO-d6 stock at a final DMSO concentration of 1%. Otherwise, DMSO-d6 was added to the same percentage. The samples were equilibrated at 37°C for 5 min and the reaction initiated by adding 100 µM [^13C6]-InsP6. The reaction time was adjusted so that conversion would not exceed 20% to remain in the linear range for initial velocity measurements. The reaction was quenched with 38 µl 700 mM EDTA pH* 8.0 and transferred into an NMR tube before being measured on a Bruker […] 600 PLUS with an NMR pulse program developed previously ([Harmel et al., 2019]). Initial velocities were calculated by dividing the amount of generated product by the product of reaction time in seconds and mass of the kinase in mg.

For data set [3], the target named is T2, IP6K1^wt (Homo sapiens, UniProt Q92551).
T2 construct: made in house; host or cells: E. coli Arctic Express
T2 sequence (Q92551 whole entry): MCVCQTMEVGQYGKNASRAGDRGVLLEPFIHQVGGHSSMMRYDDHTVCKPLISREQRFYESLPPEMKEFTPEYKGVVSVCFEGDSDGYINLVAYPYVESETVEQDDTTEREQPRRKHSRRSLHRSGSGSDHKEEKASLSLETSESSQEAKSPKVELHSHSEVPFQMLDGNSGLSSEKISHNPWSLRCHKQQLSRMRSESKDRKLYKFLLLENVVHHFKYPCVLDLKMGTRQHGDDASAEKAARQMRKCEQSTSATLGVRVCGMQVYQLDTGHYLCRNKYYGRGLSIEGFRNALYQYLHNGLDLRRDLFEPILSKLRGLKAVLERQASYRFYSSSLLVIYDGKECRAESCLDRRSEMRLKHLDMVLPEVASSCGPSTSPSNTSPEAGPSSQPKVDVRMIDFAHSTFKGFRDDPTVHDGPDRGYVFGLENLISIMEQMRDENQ
The description is as above. In kind it is biochemical. The protocol:
as §3

Data set [4] deals with T2, IP6K1^wt. Kind of data set: NMR activity assay, [13C6]-InsP6 to 5PP-InsP5, with ATP-regenerating system. Type of data set: biochemical.
Text: as §1, §2

The subject of the next data set is IP6K. The note with it: Figure 1b; ref Padmanabhan et al., 2009 (TNP); Wormald et al., 2019 (Barrow-24); Moritoh et al., 2021; Terao et al., 2018 (SC-919); cited from earlier work.
The subject of another data set is HepG2. The data set can be described thus: Cytotoxicity, cell survival after 72 hr incubation. The following applies: HepG2, 10 µM, 72 hr incubation. In kind it is cell-based. The protocol:
(§4) Supplementary file elife-88982-supp2.xlsx: Supplementary file 2. Cytotoxicity of selected hits indicated by cell survival after 72 hr incubation at 10 µM concentration. All compounds were measured in independent triplicates and errors represent standard deviation. Redox activity of selected compounds measured via a photometric surrogate assay. Reactions contained 50 mM HEPES pH 7.5, 50 mM NaCl, 200 mM DTT, and 20 µM resazurin, and were incubated for 1 hr at 37°C.

Another data set concerns HEK293. The data set can be described thus: Cytotoxicity, cell survival after 72 hr incubation. In kind it is cell-based. The note with it: HEK293, 10 µM, 72 hr incubation. The procedure:
as §4

The target of data set [5] is T2, IP6K1^wt. The data set can be described thus: High-throughput screen, reverse kinase reaction (5PP-InsP5 + ADP), Kinase-Glo luminescence. In kind it is biochemical. The note with it: dose-dependent reconfirmation. (In general: Kinase-Glo reads ATP consumption through a luciferase reaction.)
The target of data set [6] is T1, IP6K1^L210V. The description is as above. Type of data set: biochemical. The source says: Although the NMR assay described above provides direct product detection and the ability to distinguish the PP-InsP isomers ([Harmel et al., 2019]), it is inherently slow and thus not compatible with a high-throughput screen. The use of luminescence-based readouts of ATP consumption to measure IP6K activity is error-prone due to the kinase’s unusually low affinity for ATP, the sensitivity to the ATP/ADP ratio, and its inherent ATPase activity ([Wundenberg et al., 2014]; [Voglmaier et al., 1996]). Nevertheless, we were able to take advantage of these properties by examining the reverse reaction of IP6K1 with the Kinase-Glo assay, where 5PP-InsP5 and ADP are converted to InsP6 and ATP (Figure 3a).
The following solutions were prepared as 4× stock solutions: kinase buffer (HEPES pH 7.4, NaCl, BSA, MgCl2, Tween-20, DTT, and IP6K1^L210V), DMSO/inhibitor, ADP, and 5PP-InsP5. Final concentrations after optimization were 1 mM ADP, 20 mM HEPES, 50 mM NaCl, 0.2 mg/ml BSA, 2 mM MgCl2, 0.05% Tween-20, 1 mM DTT, 250 nM IP6K1^L210V, and 50 μM 5PP-InsP5. The reactions were carried out in 384-well plates following this procedure. 5 µl 4× kinase buffer (buffer only for no kinase controls), 5 µl 4× DMSO or inhibitor and 5 µl 4× ADP solution were subsequently added to all wells. After 10 min equilibration, 5 μl 4× 5PP-InsP5 were added to start the reaction (milli-Q water for negative controls). After 3 hr at room temperature, 20 µl of Promega Kinase-Glo Plus reagent were added and the luminescence read out with a Tecan Infinite M Plex reader using 100-ms exposure time after 10 min of equilibration.
ADP was prepared in a 2× stock solution in milli-Q water and the pH adjusted to 7.0. The following solutions were prepared as 4× stock solutions: kinase buffer (HEPES pH 7.4, NaCl, BSA, MgCl2, Tween-20, DTT, and IP6K1^L210V) and 5PP-InsP5. Final concentrations were 1 mM ADP, 20 mM HEPES, 50 mM NaCl, 0.2 mg/ml BSA, 2 mM MgCl2, 0.05% Tween-20, 1 mM DTT, 250 nM IP6K1^L210V, and 50 µM 5PP-InsP5. The reactions were carried out in 384-well plates following this procedure. 10 µl 2× ADP solution were added to all wells, then 0.2 µl DMSO or compound (1 mM in DMSO) were added followed by the addition of 5 µl 4× kinase buffer. For dose–response curves, compounds were added in serial dilution (twofold serial dilutions in DMSO across multiple plates prior to compound transfer to assay plates, 9 concentrations in total). After 10 min equilibration, 5 µl 4× 5PP-InsP5 were added to start the reaction (milli-Q water for negative controls). After 3 hr at room temperature, 20 µl of Promega Kinase-Glo Plus reagent were added and the luminescence read out with a Tecan Infinite M Plex or Perkin Elmer EnVision reader using 100ms exposure time after 10 min of equilibration. In the counter screen, dose–response curves were measured in the absence of kinase and presence of 50 µM ATP.

One may read the Km as the concentration of substrate that gives half-maximal velocity. Broadly, the IC50 is the point on the concentration scale where inhibition reaches its midpoint.

T1 sequence (Q92551 whole entry L210V): as the sequence (Q92551 whole entry) above, with L210V counted along it

Consider `O=C1c2ccccc2C(=O)N1c1ccc(-c2nc3ccc(N4C(=O)c5ccccc5C4=O)cc3[nH]2)cc1` [A1], for which, on IP6K1^L210V [1] (NMR assay), the “inhibition of IP6K1^L210V” value was “completely inactive”.

As for `O=C(O)c1ccc2c(c1)C(=O)N(c1ccc(-c3nc4ccccc4[nH]3)cc1)C2=O` [A2], the “inhibition of IP6K1^L210V” value against IP6K1^L210V [1] (NMR assay) is recorded as “inhibited IP6K1^L210V, albeit with severely reduced potency”.

With `Nc1ncnc2c1ncn2[C@@H]1O[C@H](COP(=O)(O)OP(=O)(O)OP(=O)(O)O)[C@@H](O)[C@H]1O` [ATP], the Km on IP6K1^L210V [2] was 412 ± 81 µM; on IP6K1^wt [3] (Michaelis–Menten, read-out: KM for ATP), 186 ± 23 µM.

For the compound `Cn1c(=O)n(-c2ccc(C(C)(C)C#N)cc2)c2c3cc(-c4cnc5ccccc5c4)ccc3ncc21` [BEZ235, reference compound], the “inhibition of IP6K1^L210V” value against IP6K1^L210V [1] (NMR assay) is listed as “inhibition of IP6K1^L210V was not observed either”. Moreover, the “inhibitory activity against IP6K1^wt” value on IP6K1^wt [4] (10 µM concentration) is listed as “none of these compounds exhibited any inhibitory activity”.

Turning to `O=[N+]([O-])c1ccc(CNc2nc(NCc3cccc(C(F)(F)F)c3)nc3[nH]cnc23)cc1` [TNP, N2-(m-trifluorobenzyl)-N6-(p-nitrobenzyl)purine, reference compound], the IC50 with IP6K is 470 nM; at IP6K1^L210V [1] (NMR assay, Figure 4—figure supplement 2b), 1410 nM; against IP6K1^wt [4] (Figure 4—figure supplement 2b) it was 2150 nM. At IP6K1^L210V [1] (NMR IC50 curves), the “difference in potency against IP6K1^wt and IP6K1^L210V” value is “no significant difference in potency”. Besides, the “mechanism of inhibition (Lineweaver–Burk)” value on IP6K1^wt [3] (versus ATP) was “competitive mechanism of action”.

On to `O=c1c(O)c(-c2ccc(O)c(O)c2)oc2cc(O)cc(O)c12` [compound 405356, quercetin, reference compound], for which the “Cell number (%)” value turned out to be 65.9 ± 16.9% in the data set with HepG2 and 104.0 ± 1.4% in the data set with HEK293. Besides, the IC50 on IP6K1^wt [5] is 12100 nM; at IP6K1^L210V [6] (Kinase-Glo, reverse reaction, dose-dependent reconfirmation), 2860 nM. In addition, on IP6K1^L210V [6] (primary screen, IP6K1^L210V), the Z-score is on record as -14.6. Also, the “%Activity” value on IP6K1^L210V [6] (primary screen, residual activity of IP6K1^L210V) was determined as 7.8%.
